Measured values from patent publication US8741807B2 (priority 2011, dated 2014).
Like-named read-outs stand apart in the source and are kept apart here.

Test system: rice blast fungus (Kyu89-246, MAFF101506, race 003.0)
Type: in vivo
Conditions: inoculated next day, 6 days after inoculation, five-leaf stage

| Compound | resistance to rice blast (number of lesions) (sprayed at 1 mM) | resistance to rice blast (number of lesions) (sprayed at 5 mM) |
| --- | --- | --- |
| NCCCCNCCCNC(=O)CCCCCCCCCCCO [YIS12OH1N, 1-N-(12-hydroroxylauroyl)-spermidine] | provided the resistance | showed resistance to rice blast |
| NCCCCN(CCCN)C(=O)CCCCCCCCCCCO [YIS12OH4N, ^4N-(12-hydroroxylauroyl)-spermidine] |  | showed resistance to rice blast |
